# According to PubChem BioAssay AID1996:
# Details: buffer; pH 7.4; 200.0 µM
row,solubility kinetic [µg/mL],SMILES
1,> 51.7,CC(C(=O)OCC(=O)N1CCCCC1)N1C(=O)c2ccccc2C1=O (stereo not drawn)
2,> 36.9,O=C(c1ccc2ncsc2c1)N1CCCCC1
3,> 53.6,COc1ccc(CC(=O)OCC(=O)NCc2ccc(C)cc2)cc1OC
4,10,Cc1ccc2c(Cl)cc(Cl)c(OCC(=O)NC(C)(C)C)c2n1
5,> 46.4,COc1ccc(-c2nnc(SCC(=O)O)n2C)cc1OC
6,5.8,CCOC(=O)Cc1csc(NC(=O)Nc2cccc(OC)c2)n1
7,> 49.7,O=C(O)CC1c2ccccc2CCN1S(=O)(=O)c1ccccc1 (stereo not drawn)
8,> 37.7,Cc1sc2ncnc(NC(C)C(=O)O)c2c1C (stereo not drawn)
9,2,COc1ccc(N/C=C2\CCc3ccccc3C2=O)cc1
10,> 42.8,O=C1CSC(c2cccc(O)c2)N1Cc1ccccc1 (stereo not drawn)
11,< 0.7,COc1ccc(C(=O)Nc2ccc(C3CC3(Cl)Cl)cc2)cc1 (stereo not drawn)
12,9.4,Nc1cc(C(=O)OCC(=O)NCCC2=CCCCC2)ccc1Cl
13,1,COc1ccccc1C(=O)Nc1ccccc1N1CCCCC1
14,> 41.6,O=C(Nc1ccncc1)c1ccc(Br)cc1
15,5.6,Cc1ccccc1CC(=O)N1CCN(S(=O)(=O)c2ccc(Cl)s2)CC1
16,1.4,COc1ccc(-c2csc3ncn(Cc4ccccc4)c(=O)c23)cc1
17,49.1,CC(OC(=O)C1CCCC1)C(=O)Nc1ncc(Cl)cc1Cl (stereo not drawn)
18,4.6,N#C/C(=C\Nc1ccc2c(c1)OCCO2)C(=O)NCc1ccco1
19,> 48.9,CC(NC(=O)c1ccccc1Cl)c1ccc(-n2ccnc2)cc1 (stereo not drawn)
20,< 0.3,Cc1ccc(C(=O)Nc2ccccc2C(=O)Nc2ccccn2)cc1Cl
21,1.9,Cc1cccc(NC(=O)Nc2cnccn2)c1C
22,13.5,Cc1ccc(CCNC(=O)CSCc2ccc(F)cc2)cc1
23,> 54.5,CCOP(=O)(OCC)C(Nc1ccc(C(=O)O)cc1)c1ccccc1 (stereo not drawn)
24,23.3,O=[N+]([O-])c1cc(Cl)ccc1Sc1ccccn1

row,solubility kinetic [µg/mL],SMILES
1,< 0.2,CC(C)(C)c1ccc(-c2noc(-c3ccno3)n2)cc1
2,48.9,CC(=O)Oc1ccccc1-n1c(C)nc(=O)c(-c2ccccc2)c1C
3,46,CCc1ccc(-c2nc(CS(=O)CC(=O)O)c(C)o2)cc1 (stereo not drawn)
4,31.1,Cc1ccccc1CN(C)C(=O)CNC(=O)c1ccc2ccccc2c1
5,< 0.3,COc1ccccc1C(=O)Nc1ccc(Nc2ccccc2)cc1
6,> 43.2,O=C1CN(S(=O)(=O)c2ccccc2)c2ccccc2N1
7,37.5,C=CCn1c(SCC(=O)NCC)nc2sc3c(c2c1=O)CCC3
8,2.4,O=C(O)c1cccc(Nc2c3ccccc3nc3ccccc23)c1
9,> 48.2,CCCCCOc1ccccc1C(=O)NCCCCCC(=O)O
10,6.6,O=C(NCCc1ccc(C(F)(F)F)cc1)c1ccc(Cl)nc1
11,4,O=C(NCCOc1ccc(Cl)cc1)c1ccc2ccccc2n1
12,5.4,O=C(COc1ccc(S(=O)(=O)N2CCOCC2)cc1)Nc1ccc(Br)cc1
13,> 51.2,CSc1nsc(SCC(=O)Nc2ccc(C(=O)O)cc2)n1
14,30.9,COc1ccc(CSC2=NCCN2)cc1Br
15,32.8,CCCCCCc1c(O)nc(SCCN(C)C)[nH]c1=O
16,< 0.6,COC(=O)c1c(Sc2ccccc2)c2ccccc2n1C
17,> 39.8,COc1ccc(Nc2ncnc3ccc(C)cc23)cc1
18,> 45.9,COc1ccc(NC(=O)CN(C)C(=O)C2=COCCO2)cc1
19,> 38,O=c1cc([O-])n(Cc2ccc(F)cc2)c(=O)[nH]1.[NH4+]
20,37.4,Cc1cc(S(=O)(=O)Nc2cccc(Cl)c2)c(C)s1
21,33.9,C=Cn1ccnc1CC(O)c1ccc(OC)cc1 (stereo not drawn)
22,10.1,COc1ccc(OC)c(COC(=O)c2cccc(S(=O)(=O)N3CCCCC3)c2)c1
23,< 0.7,COc1ccc(CCNC(=O)c2cc3ccccc3oc2=O)cc1

row,SMILES,solubility kinetic [µg/mL]
1,Cl.N=c1sccn1Cc1ccccc1F,> 36.7
